In patent US20260356854A1, “Prodrugs of Varenicline and Compounds Containing Vulnerable Amines” (Pfizer Inc., priority 2022, published 2026):
Where two headings read alike, the source gives them in different places. Each block holds one compound with its values, some of them ahead of it.

Assays:
[1] = Nitrosamine formation under nitrosating conditions in solution (UPLC-MS); type: physicochemical; conditions: for 10 min. N—NO Level: area % by UV; for 2 h N—NO Level / 42 h N—NO Level: area % by UV (210 nm)
Experimental: A study was conducted to determine whether varenicline prodrug (Compound 1) forms nitrosamine under nitrosating conditions in solution as compared to varenicline. Regular UPLC-MS detection was utilized. Varenicline free base (0.1 mmol), varenicline tartrate salt (0.1 mmol), and Compound 1 (0.1 mmol) were added to separate vials. THF (2.2 ml) was added to each vial. NaNO2 (0.1 eq) and AcOH (0.1 eq) (added as a 0.1 wt % NaNO2 solution with equivalent molar of acetic acid was also added to each vial to provide a total volume of ~2.5 ml/vial.

[2] = Study to assess the bioequivalence of Compound 1 and varenicline tartrate (oral plasma concentrations); type: in vivo, monkey (non-human primates); conditions: monkey, capsule, 0.04 mg eq/kg
Experimental: FIG. 3 is a graph of the mean monkey plasma concentrations of varenicline following an oral dose of 0.04 mg eq/kg of prodrug (Compound 1) and varenicline tartrate.
A prodrug of varenicline (Compound 1) prepared as described above in Example 1 was orally dosed in capsule form to non-human primates to assess bioequivalence to varenicline tartrate API (Chantix). FIG. 3 is a graph of the mean monkey plasma concentrations of varenicline following an oral dose of 0.04 mg eq/kg of prodrug (Compound 1) and 0.04 mg eq/kg of varenicline tartrate.

[3] = Moisture uptake / hygroscopicity (solid-state characterization); type: physicochemical; conditions: 90% RH/25 °C; crystalline anhydrous form
Experimental: (§1) Compound 1 is a crystalline anhydrous solid form as represented by its PXRD pattern (FIG. 1). […] Compound 1 has a melting onset of ~227 °C and is non-hygroscopic, i.e., less than 0.2% moisture uptake at 90% RH/25 °C.

[4] = Weight loss on heating (solid-state characterization); type: physicochemical; conditions: up to 150 °C; crystalline anhydrous form
Experimental: as §1

[5] = tested on: chronic cigarette smokers; conditions: Study 2, cited from earlier work; for co-confirmed continuous abstinence during weeks 9 through 12: placebo 12%; for continuously abstinent from one week after TQD through the end of treatment: placebo 8%
[6] = tested on: chronic cigarette smokers; conditions: Study 4, cited from earlier work
[7] = tested on: chronic cigarette smokers; conditions: Study 3, patient-directed 0.5 mg QD to 1 mg BID, cited from earlier work
[8] = tested on: chronic cigarette smokers; conditions: total dose of 1 mg per day or 2 mg per day; six weeks; initial evidence; cited from earlier work
[9] = tested on: chronic cigarette smokers; conditions: Study 5, cited from earlier work
[10] = nitrosating conditions: NaNO2 0.1 eq, AcOH 0.1 eq, THF, 10 min
[11] = nitrosating conditions: NaNO2 0.1 eq, AcOH 0.1 eq, THF
[12] = varenicline 1 mg BID compared to bupropion SR or placebo

10 min. N—NO Level [1, 10]: Not detected
2 h N—NO Level [1, 11]: Not detected
42 h N—NO Level [1, 11]: Not detected
Structure (SMILES): Cl.c1cnc2cc3c(cc2n1)C1CNCC3C1 [Varenicline Free base, 5,8,14-triazatetracyclo [10.3.1.0^2,11.0^4,9]hexadeca-2(11),3,5,7,9-pentaene]

Structure (SMILES): Cc1ncc2c(c1O)[C@H](N1C[C@H]3C[C@@H](C1)c1cc4nccnc4cc13)OC2 [Compound 1, (R)-6-methyl-1-((6R,10S)-6,7,9,10-tetrahydro-8H-6,10-methanoazepino[4,5-g]quinoxalin-8-yl)-1,3-dihydrofuro[3,4-c]pyridin-7-ol]
prodrug remaining in the systemic circulation ([2]; analyte prodrug): no prodrug remaining in the systemic circulation
bioequivalence (plasma concentration over time) of the varenicline released from the prodrug ([2]; analyte varenicline, vs varenicline tartrate 0.04 mg eq/kg): comparable to varenicline tartrate
nitrosamine formation under nitrosating conditions (in words) ([1]; as compared to varenicline tartrate): does not form nitrosamines
10 min. N—NO Level [1, 10]: Not detected
2 h N—NO Level [1, 11]: Not detected.
42 h N—NO Level [1, 11]: Not detected
hygroscopicity (in words) [3]: non-hygroscopic
moisture uptake [3]: less than 0.2%
weight loss [4]: less than 0.1%

10 min. N—NO Level (by MS) ([1]; nitrosating conditions: NaNO2 0.1 eq, AcOH 0.1 eq, THF, 10 min, MS detection): Detectable by MS
10 min. N—NO Level [1, 10]: Not detected by UV
2 h N—NO Level [1, 11]: 0.83 A %
42 h N—NO Level [1, 11]: 5.15 A %
Structure (SMILES): O=C(O)C(O)C(O)C(=O)O.c1cnc2cc3c(cc2n1)[C@@H]1CNC[C@H]3C1 [Varenicline tartrate]

Structure (SMILES): Cl.c1cnc2cc3c(cc2n1)C1CNCC3C1 [varenicline, 5,8,14-triazatetracyclo[10.3.1.0^2,11.0^4,9]hexadeca-2(11),3,5,7,9-pentaene]
co-confirmed continuous abstinence during weeks 9 through 12 ([5]; 1 mg per day (0.5 mg BID)): Forty five
continuously abstinent from one week after TQD through the end of treatment ([5]; 1 mg per day): 31%
co-confirmed continuous abstinence during weeks 9 through 12 ([5]; 2 mg per day (1 mg BID)): 51%
continuously abstinent from one week after TQD through the end of treatment ([5]; 2 mg per day): 31%
rate of co-confirmed abstinence during weeks 9 through 12, comparison in words [6, 12]: superior
continuously abstinent from one week after TQD through the end of treatment ([6]; varenicline 1 mg BID, placebo 12%): 29%
co-confirmed abstinence during weeks 9 through 12 ([6]; varenicline 1 mg BID, placebo 17%): 44%
continuously abstinent from one week after TQD through the end of treatment ([7]; placebo 9%): 29%
co-confirmed continuous abstinence during weeks 9 through 12 ([7]; placebo 12%): 40%
effectiveness as an aid to smoking cessation (in words) [8]: effective as an aid to smoking cessation
rate of co-confirmed abstinence during weeks 9 through 12, comparison in words [9, 12]: superior
continuously abstinent from one week after TQD through the end of treatment ([9]; varenicline 1 mg BID, placebo 11%): 29%
co-confirmed abstinence during weeks 9 through 12 ([9]; varenicline 1 mg BID, placebo 18%): 44%
